We go through 14 molecules from patent publication US11339130B1 (Blade Therapeutics, Inc., priority 2016, dated 2022).

Assay [1] concerns Calpain activity in SH-SY5Y cells. In words: SH-SY5Y + AMC fluorescence assay (Suc-LLVY-AMC substrate). In kind it is cell-based. The note with it: read-out: SH-SY5Y + AMC IC50.
The target of a further assay is T1, Human Calpain 1/NS1 (Homo sapiens, UniProt P07384).
T1 sequence (P07384 1-714): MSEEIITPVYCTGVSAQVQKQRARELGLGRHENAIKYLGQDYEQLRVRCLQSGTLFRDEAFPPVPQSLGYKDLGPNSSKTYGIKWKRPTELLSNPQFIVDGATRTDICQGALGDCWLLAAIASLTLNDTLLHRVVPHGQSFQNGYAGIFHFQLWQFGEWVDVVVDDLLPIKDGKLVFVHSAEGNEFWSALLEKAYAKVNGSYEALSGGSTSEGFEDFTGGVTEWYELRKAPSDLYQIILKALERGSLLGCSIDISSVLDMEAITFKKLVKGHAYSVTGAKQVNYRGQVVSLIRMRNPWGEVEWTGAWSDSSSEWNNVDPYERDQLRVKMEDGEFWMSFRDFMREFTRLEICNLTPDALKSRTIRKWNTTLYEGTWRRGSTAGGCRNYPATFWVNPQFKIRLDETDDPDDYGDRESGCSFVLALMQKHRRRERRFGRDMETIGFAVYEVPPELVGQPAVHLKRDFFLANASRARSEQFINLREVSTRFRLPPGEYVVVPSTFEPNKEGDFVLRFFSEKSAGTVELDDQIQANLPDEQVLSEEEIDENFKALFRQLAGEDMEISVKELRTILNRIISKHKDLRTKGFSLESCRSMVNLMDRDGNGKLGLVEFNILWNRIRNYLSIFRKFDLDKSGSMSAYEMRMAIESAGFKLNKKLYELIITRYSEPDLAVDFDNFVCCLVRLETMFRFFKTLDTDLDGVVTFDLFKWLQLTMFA
T1 sequence (P04632 1-268 partner): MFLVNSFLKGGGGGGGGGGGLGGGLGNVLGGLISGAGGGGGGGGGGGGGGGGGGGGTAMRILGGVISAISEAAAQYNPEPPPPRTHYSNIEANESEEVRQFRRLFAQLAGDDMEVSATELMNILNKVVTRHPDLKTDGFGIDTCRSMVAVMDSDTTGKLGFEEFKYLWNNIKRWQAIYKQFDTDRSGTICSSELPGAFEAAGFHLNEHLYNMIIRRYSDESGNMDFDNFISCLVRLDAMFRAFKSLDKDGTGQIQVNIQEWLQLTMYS
In words: Calpain inhibition continuous fluorescence (FRET) assay, Human Calpain 1/NS1. It is filed as biochemical. To be noted: read-out: Human Calpain 1/NS1 IC50. The method in brief:
(§1)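 Buffer 50 mM Tris pH 7.5/100 mM NaCl/1 mM DTT; enzyme + cpd preinc 25C; start w/ FRET substrate + CaCl2; kinetic 490/520 nm, 10 min; slopes 1-5 min; 4-PL IC50.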

The target in the next assay is T2, Human Calpain 9/NS1 (Homo sapiens, UniProt O14815).
T2 sequence (O14815 1-690): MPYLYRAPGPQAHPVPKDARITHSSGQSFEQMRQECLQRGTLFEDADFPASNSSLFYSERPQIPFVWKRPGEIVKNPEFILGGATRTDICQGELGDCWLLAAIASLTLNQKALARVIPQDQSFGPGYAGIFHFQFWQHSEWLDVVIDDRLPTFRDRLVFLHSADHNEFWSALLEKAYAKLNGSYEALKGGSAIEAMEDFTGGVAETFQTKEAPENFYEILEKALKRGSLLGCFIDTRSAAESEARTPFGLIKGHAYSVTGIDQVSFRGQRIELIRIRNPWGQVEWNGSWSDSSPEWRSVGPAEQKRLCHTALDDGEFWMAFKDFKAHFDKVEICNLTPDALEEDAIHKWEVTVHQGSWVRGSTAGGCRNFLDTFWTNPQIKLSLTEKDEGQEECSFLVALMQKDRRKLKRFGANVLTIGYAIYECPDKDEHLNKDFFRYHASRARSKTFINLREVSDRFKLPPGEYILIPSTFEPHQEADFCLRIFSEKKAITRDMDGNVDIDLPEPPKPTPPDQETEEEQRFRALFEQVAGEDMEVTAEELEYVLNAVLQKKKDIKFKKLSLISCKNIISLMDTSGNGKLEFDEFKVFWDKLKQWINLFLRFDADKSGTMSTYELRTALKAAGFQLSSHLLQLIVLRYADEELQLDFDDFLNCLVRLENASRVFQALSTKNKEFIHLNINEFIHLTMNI
T2 sequence (P04632 1-268 partner): T1 sequence (P04632 1-268 partner)
In words: Calpain inhibition continuous fluorescence (FRET) assay, Human Calpain 9/NS1. In kind it is biochemical. To be noted: read-out: Human Calpain 9/NS1 IC50. The method, boiled down: as §1

In another assay the target is T3, Human Calpain 2/NS1 (Homo sapiens, UniProt P17655).
T3 sequence (P17655 1-700): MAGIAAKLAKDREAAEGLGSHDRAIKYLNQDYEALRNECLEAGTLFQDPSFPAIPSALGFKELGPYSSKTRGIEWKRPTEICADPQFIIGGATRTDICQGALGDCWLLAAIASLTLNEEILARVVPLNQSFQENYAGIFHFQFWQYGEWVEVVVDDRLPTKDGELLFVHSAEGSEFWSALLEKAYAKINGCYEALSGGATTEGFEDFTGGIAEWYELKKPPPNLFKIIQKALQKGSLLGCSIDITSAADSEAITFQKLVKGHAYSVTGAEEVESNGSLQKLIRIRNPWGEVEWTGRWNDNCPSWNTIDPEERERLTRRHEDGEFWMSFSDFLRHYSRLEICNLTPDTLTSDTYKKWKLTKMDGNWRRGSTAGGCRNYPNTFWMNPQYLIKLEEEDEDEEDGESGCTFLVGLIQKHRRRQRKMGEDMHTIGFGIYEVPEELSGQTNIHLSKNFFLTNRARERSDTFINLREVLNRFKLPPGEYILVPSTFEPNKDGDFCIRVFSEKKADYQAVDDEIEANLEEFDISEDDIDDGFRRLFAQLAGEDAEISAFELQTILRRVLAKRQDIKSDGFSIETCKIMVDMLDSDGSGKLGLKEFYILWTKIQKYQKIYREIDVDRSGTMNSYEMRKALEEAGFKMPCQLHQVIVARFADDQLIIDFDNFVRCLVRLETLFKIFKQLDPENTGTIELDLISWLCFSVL
T3 sequence (P04632 1-268 partner): T1 sequence (P04632 1-268 partner)
In words: Calpain inhibition continuous fluorescence (FRET) assay, Human Calpain 2/NS1. In kind it is biochemical. The note with it: read-out: Human Calpain 2/NS1 IC50. The method in brief:
as §1

The structures appear in SMILES notation. Read-outs that look alike come from different tables or passages of the source.

Turning to `Cc1cc(C(=O)N[C@@H](Cc2ccccc2)C(=O)C(N)=O)n(-c2cccc(-c3ccccc3F)c2)n1` [Compound 214, (S)—N-(4-amino-3,4-dioxo-1-phenylbutan-2-yl)-1-(2′-fluoro-[1,1′-biphenyl]-3-yl)-3-methyl-1H-pyrazole-5-carboxamide], the IC50 was more than 25 µM in assay [1] (Column E), less than 3 µM on Human Calpain 1/NS1 (Column A), less than 3 µM at Human Calpain 9/NS1 (Column C) and less than 3 µM at Human Calpain 2/NS1 (Column B).
Turning to `NC(=O)C(=O)[C@H](Cc1ccccc1)NC(=O)c1cc(Cl)sc1-c1ccccc1` [Compound 271, (S)—N-(4-amino-3,4-dioxo-1-phenylbutan-2-yl)-5-chloro-2-phenylthiophene-3-carboxamide], the IC50 in assay [1] (Column E) is more than 25 µM; on Human Calpain 1/NS1 (Column A), less than 3 µM; at Human Calpain 9/NS1 (Column C), less than 3 µM; on Human Calpain 2/NS1 (Column B), less than 3 µM.
With `NC(=O)C(=O)[C@H](Cc1ccccc1)NC(=O)c1cc(Cl)nn1-c1ccccc1` [Compound 281, (S)—N-(4-amino-3,4-dioxo-1-phenylbutan-2-yl)-3-chloro-1-phenyl-1H-pyrazole-5-carboxamide], the IC50 was 10 to 25 µM in assay [1] (Column E), less than 3 µM on Human Calpain 1/NS1 (Column A), less than 3 µM at Human Calpain 9/NS1 (Column C) and less than 3 µM at Human Calpain 2/NS1 (Column B).
As for `C[C@@H]1C[C@@H](C(=O)NC(Cc2ccccc2)C(=O)C(N)=O)N(c2ccccc2)C1` (stereo partly drawn) [Compound 292, (2S,4R)—N-(4-amino-3,4-dioxo-1-phenylbutan-2-yl)-4-methyl-1-phenylpyrrolidine-2-carboxamide], the IC50 is more than 25 µM in assay [1] (Column E), less than 3 µM at Human Calpain 1/NS1 (Column A), less than 3 µM at Human Calpain 9/NS1 (Column C) and less than 3 µM on Human Calpain 2/NS1 (Column B).
On to `NC(=O)C(=O)[C@H](Cc1ccccc1)NC(=O)c1cc(C(F)(F)F)nn1-c1ccccc1` [Compound 305, (S)—N-(4-amino-3,4-dioxo-1-phenylbutan-2-yl)-1-phenyl-3-(trifluoromethyl)-1H-pyrazole-5-carboxamide], for which the IC50 in assay [1] is less than 10 µM; on Human Calpain 1/NS1, less than 3 µM; on Human Calpain 9/NS1 it was less than 3 µM; at Human Calpain 2/NS1 it was less than 3 µM.
As for `NC(=O)C(=O)[C@H](Cc1ccccc1)NC(=O)c1cc(C2CC2)nn1-c1ccccc1` [Compound 306, (S)—N-(4-amino-3,4-dioxo-1-phenylbutan-2-yl)-3-cyclopropyl-1-phenyl-1H-pyrazole-5-carboxamide], the IC50 in assay [1] is less than 10 µM; at Human Calpain 1/NS1, 3 to 10 µM; on Human Calpain 9/NS1 it was 3 to 10 µM; at Human Calpain 2/NS1, 3 to 10 µM.
As to `NC(=O)C(=O)[C@H](Cc1ccccc1)NC(=O)[C@@H]1CCCN1c1ccccc1` [Compound 308, (S)—N—((S)-4-amino-3,4-dioxo-1-phenylbutan-2-yl)-1-phenylpyrrolidine-2-carboxamide], the IC50 in assay [1] is more than 25 µM; on Human Calpain 1/NS1, less than 3 µM; on Human Calpain 9/NS1, less than 3 µM; on Human Calpain 2/NS1, less than 3 µM.
As for `NC(=O)C(=O)[C@H](Cc1ccccc1)NC(=O)c1conc1-c1cccc(F)c1` [Compound 323, (S)—N-(4-amino-3,4-dioxo-1-phenylbutan-2-yl)-3-(3-fluorophenyl)isoxazole-4-carboxamide], the IC50 in assay [1] was more than 25 µM; on Human Calpain 1/NS1, less than 3 µM; at Human Calpain 9/NS1, less than 3 µM; on Human Calpain 2/NS1, less than 3 µM.
Consider `COCCOCCNC(=O)C(=O)[C@H](Cc1ccccc1)NC(=O)c1cn(C)nc1-c1ccccc1` [Compound 335, (S)—N-(4-((2-(2-methoxyethoxy)ethyl)amino)-3,4-dioxo-1-phenylbutan-2-yl)-1-methyl-3-phenyl-1H-pyrazole-4-carboxamide], for which the IC50 in assay [1] is less than 10 µM; on Human Calpain 1/NS1 it was less than 3 µM; on Human Calpain 9/NS1 it was less than 3 µM; on Human Calpain 2/NS1, less than 3 µM.
For the molecule `CNC(=O)CNC(=O)C(=O)[C@H](Cc1ccccc1)NC(=O)c1cn(C)nc1-c1ccccc1` [Compound 336, (S)-1-methyl-N-(4-((2-(methylamino)-2-oxoethyl)amino)-3,4-dioxo-1-phenylbutan-2-yl)-3-phenyl-1H-pyrazole-4-carboxamide], the IC50 in assay [1] was less than 10 µM; at Human Calpain 1/NS1, less than 3 µM; at Human Calpain 9/NS1, less than 3 µM; on Human Calpain 2/NS1, less than 3 µM.
Take `Cc1nc(-c2ccccc2)c(C(=O)N[C@@H](Cc2ccc(OS(=O)(=O)C(F)(F)F)cc2)C(=O)C(N)=O)o1` [Compound 355]: the IC50 in assay [1] is 10 to 25 µM; on Human Calpain 1/NS1, less than 3 µM; at Human Calpain 9/NS1, less than 3 µM; on Human Calpain 2/NS1 it was less than 3 µM.
As for `Cc1ccccc1-c1nc(C(F)(F)F)oc1C(=O)NC(Cc1ccccc1)C(=O)C(N)=O` (centres unmarked) [Compound 359, N-(4-amino-3,4-dioxo-1-phenylbutan-2-yl)-4-(o-tolyl)-2-(trifluoromethyl)oxazole-5-carboxamide], the IC50 in assay [1] was 10 to 25 µM; at Human Calpain 1/NS1, less than 3 µM; on Human Calpain 9/NS1, less than 3 µM; on Human Calpain 2/NS1 it was less than 3 µM.
On to `Cc1cccc(-c2nsnc2C(=O)NC(Cc2ccccc2)C(=O)C(N)=O)c1F` (centres unmarked) [Compound 368, N-(4-amino-3,4-dioxo-1-phenylbutan-2-yl)-4-(2-fluoro-3-methylphenyl)-1,2,5-thiadiazole-3-carboxamide], for which the IC50 in assay [1] was less than 10 µM; at Human Calpain 1/NS1, less than 3 µM; on Human Calpain 9/NS1, less than 3 µM; at Human Calpain 2/NS1 it was less than 3 µM.
For the molecule `NC(=O)C(=O)C(Cc1ccccc1)NC(=O)[C@@H]1CC2(CC2)CN1c1ccccc1` (stereo partly drawn) [Compound 411, (6S)—N-(4-amino-3,4-dioxo-1-phenylbutan-2-yl)-5-phenyl-5-azaspiro[2.4]heptane-6-carboxamide], the IC50 was 10 to 25 µM in assay [1], less than 3 µM on Human Calpain 1/NS1, less than 3 µM on Human Calpain 9/NS1 and less than 3 µM on Human Calpain 2/NS1.
